From ChEMBL document CHEMBL1156511, “Suppressor mutations in the transmembrane segments of P-glycoprotein promote maturation of processing mutants and disrupt a subset of drug-binding sites” (J Biol Chem, 2007)
Calls of active or inactive are those of the source. The rule behind the calls is not given here.

Legend:
Format in all cases: cell-based
[1] = target: ATP-dependent translocase ABCB1 (Homo sapiens, UniProt P08183, Q195C); test: Increase in ATPase activity of human histidine-tagged Pgp TM3 Q195C mutant expressed in HEK293 cells at 2 mM relative to control; settings: hek293, 2000 µM
Chain of ATP-dependent translocase ABCB1 (Homo sapiens, UniProt P08183, Q195C) (P08183 whole entry Q195C): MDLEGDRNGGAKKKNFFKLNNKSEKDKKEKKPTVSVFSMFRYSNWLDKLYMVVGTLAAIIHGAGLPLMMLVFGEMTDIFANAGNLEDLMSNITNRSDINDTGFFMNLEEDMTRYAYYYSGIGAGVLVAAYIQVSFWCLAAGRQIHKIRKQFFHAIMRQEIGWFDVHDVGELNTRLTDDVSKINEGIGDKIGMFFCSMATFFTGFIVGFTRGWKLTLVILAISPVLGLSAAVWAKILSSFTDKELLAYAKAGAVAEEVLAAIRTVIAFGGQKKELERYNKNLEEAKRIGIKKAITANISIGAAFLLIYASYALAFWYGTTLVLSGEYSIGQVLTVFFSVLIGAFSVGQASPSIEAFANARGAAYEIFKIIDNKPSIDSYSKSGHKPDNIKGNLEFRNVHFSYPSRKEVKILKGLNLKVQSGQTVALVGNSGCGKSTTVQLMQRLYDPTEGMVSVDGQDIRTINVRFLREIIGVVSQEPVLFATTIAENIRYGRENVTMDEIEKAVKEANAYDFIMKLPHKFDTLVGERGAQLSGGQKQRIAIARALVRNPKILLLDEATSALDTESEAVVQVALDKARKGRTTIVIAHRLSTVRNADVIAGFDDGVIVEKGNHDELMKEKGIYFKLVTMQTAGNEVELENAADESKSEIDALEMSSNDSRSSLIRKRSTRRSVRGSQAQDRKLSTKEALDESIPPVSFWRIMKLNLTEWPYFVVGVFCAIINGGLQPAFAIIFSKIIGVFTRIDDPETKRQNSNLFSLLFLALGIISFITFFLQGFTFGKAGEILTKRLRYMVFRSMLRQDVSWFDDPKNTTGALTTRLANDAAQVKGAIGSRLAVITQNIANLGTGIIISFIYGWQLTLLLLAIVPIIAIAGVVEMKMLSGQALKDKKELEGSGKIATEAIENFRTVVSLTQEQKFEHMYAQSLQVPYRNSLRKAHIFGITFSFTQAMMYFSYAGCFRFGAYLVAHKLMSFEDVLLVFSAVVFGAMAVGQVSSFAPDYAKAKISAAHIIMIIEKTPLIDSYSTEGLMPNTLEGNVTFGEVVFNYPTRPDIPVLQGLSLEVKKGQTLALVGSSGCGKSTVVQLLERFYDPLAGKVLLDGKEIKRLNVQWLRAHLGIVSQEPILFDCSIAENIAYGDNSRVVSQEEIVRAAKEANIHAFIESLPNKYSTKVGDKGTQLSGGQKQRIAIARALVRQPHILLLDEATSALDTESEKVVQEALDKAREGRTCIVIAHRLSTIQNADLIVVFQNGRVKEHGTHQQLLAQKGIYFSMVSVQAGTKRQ

[2] = target: ATP-dependent translocase ABCB1 (Homo sapiens, UniProt P08183, I190C); test: Increase in ATPase activity of human histidine-tagged Pgp TM3 I190C mutant expressed in HEK293 cells at 2 mM relative to control; settings: hek293, 2000 µM
[3] = target: ATP-dependent translocase ABCB1 (Homo sapiens, UniProt P08183, G207C); test: Increase in ATPase activity of human histidine-tagged Pgp TM3 G207C mutant expressed in HEK293 cells at 2 mM relative to control; settings: hek293, 2000 µM
[4] = target: T1, ATP-dependent translocase ABCB1 (Homo sapiens, UniProt P08183, C137A/C431A/C717A/C956A/C1074A/C1125A/C1227A); test: Increase in ATPase activity of human histidine-tagged Pgp Cys-less mutant expressed in HEK293 cells at 2 mM relative to control; settings: hek293, 2000 µM
T1 sequence (P08183 whole entry C137A/C431A/C717A/C956A/C1074A/C1125A/C1227A): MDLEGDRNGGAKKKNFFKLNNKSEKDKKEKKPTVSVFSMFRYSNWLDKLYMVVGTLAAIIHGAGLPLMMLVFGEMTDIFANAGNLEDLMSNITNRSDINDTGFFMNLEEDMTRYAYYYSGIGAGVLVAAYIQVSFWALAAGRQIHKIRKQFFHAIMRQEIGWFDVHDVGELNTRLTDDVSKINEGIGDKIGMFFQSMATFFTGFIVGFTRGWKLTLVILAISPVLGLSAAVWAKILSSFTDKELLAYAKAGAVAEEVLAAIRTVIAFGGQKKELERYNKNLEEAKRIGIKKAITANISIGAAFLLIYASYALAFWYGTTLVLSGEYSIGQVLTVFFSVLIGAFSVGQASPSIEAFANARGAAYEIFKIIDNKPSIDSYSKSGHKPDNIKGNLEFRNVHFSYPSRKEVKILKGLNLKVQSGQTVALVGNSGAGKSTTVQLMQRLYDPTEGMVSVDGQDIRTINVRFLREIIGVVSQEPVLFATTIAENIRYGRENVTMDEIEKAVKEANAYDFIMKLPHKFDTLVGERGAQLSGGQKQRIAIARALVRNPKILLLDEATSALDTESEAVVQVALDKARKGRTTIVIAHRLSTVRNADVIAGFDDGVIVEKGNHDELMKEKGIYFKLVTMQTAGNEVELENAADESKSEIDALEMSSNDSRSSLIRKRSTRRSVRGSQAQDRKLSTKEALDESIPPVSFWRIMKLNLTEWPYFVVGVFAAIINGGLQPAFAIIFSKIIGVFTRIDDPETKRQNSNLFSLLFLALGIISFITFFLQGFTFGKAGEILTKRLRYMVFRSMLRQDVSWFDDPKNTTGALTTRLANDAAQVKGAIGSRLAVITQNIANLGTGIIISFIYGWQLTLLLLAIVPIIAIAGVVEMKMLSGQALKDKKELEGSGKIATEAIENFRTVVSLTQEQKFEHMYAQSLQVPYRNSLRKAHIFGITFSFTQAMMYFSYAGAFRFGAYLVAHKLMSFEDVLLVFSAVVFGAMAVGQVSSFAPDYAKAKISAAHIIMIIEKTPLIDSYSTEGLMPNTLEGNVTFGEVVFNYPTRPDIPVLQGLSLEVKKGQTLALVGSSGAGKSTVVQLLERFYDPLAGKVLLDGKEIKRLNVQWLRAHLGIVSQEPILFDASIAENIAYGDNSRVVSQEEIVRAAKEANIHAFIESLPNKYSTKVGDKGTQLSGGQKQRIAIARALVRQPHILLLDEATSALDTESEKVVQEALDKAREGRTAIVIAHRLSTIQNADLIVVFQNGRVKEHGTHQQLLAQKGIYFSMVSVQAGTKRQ

[5] = target: ATP-dependent translocase ABCB1 (Homo sapiens, UniProt P08183, F194C); test: Increase in ATPase activity of human histidine-tagged Pgp TM3 F194C mutant expressed in HEK293 cells at 2 mM relative to control; settings: hek293, 2000 µM
[6] = target: ATP-dependent translocase ABCB1 (Homo sapiens, UniProt P08183, F208C); test: Increase in ATPase activity of human histidine-tagged Pgp TM3 F208C mutant expressed in HEK293 cells at 2 mM relative to control; settings: hek293, 2000 µM
[7] = target: T2, ATP-dependent translocase ABCB1 (Homo sapiens, UniProt P08183, T199C); test: Activation of ATPase activity of human histidine-tagged Pgp TM3 T199C mutant expressed in HEK293 cells assessed as drug level causing maximal activation
T2 sequence (P08183 whole entry T199C): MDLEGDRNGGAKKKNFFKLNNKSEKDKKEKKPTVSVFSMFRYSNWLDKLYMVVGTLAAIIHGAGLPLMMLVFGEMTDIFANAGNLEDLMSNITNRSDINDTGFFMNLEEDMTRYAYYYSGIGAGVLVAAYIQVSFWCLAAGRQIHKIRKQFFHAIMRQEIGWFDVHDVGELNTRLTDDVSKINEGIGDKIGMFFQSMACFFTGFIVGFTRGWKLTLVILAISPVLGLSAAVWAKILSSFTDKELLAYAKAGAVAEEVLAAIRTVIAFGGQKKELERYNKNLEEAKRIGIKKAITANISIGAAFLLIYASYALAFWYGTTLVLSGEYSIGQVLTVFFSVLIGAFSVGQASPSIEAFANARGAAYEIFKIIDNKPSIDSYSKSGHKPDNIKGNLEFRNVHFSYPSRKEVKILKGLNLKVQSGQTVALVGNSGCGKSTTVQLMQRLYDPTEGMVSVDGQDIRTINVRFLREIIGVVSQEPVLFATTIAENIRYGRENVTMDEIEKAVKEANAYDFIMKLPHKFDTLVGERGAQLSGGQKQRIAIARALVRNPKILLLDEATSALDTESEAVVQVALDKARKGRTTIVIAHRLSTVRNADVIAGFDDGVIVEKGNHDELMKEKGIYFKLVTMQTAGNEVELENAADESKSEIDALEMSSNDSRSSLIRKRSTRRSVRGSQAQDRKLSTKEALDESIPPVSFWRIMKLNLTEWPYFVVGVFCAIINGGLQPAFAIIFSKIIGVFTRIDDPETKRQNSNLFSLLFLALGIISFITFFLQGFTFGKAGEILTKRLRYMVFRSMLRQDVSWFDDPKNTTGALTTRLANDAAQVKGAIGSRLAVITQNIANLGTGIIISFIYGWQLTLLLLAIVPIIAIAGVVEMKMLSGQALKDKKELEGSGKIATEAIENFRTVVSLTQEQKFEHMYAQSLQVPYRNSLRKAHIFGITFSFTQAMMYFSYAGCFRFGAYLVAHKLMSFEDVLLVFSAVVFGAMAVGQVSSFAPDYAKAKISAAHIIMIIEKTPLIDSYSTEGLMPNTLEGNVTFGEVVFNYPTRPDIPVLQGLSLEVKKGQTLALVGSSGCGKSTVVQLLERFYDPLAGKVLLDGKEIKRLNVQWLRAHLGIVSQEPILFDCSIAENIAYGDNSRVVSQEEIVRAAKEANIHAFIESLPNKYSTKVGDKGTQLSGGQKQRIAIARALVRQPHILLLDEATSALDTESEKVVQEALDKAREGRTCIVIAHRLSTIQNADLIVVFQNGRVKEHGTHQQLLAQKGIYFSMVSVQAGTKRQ

[8] = target: ATP-dependent translocase ABCB1 (Homo sapiens, UniProt P08183, S196C); test: Increase in ATPase activity of human histidine-tagged Pgp TM3 S196C mutant expressed in HEK293 cells at 2 mM relative to control; settings: hek293, 2000 µM
[9] = target: ATP-dependent translocase ABCB1 (Homo sapiens, UniProt P08183, F204C); test: Increase in ATPase activity of human histidine-tagged Pgp TM3 F204C mutant expressed in HEK293 cells at 2 mM relative to control; settings: hek293, 2000 µM
[10] = target: T2, ATP-dependent translocase ABCB1; test: Activation of ATPase activity of human histidine-tagged Pgp TM3 T199C mutant expressed in HEK293 cells assessed as drug level causing half-maximal activation; settings: read-out: Activity
[11] = target: T1, ATP-dependent translocase ABCB1; test: Activation of ATPase activity of human histidine-tagged Cys-less Pgp mutant expressed in HEK293 cells assessed as half maximal stimulation at 110 uM; settings: hek293, 110 µM
[12] = target: ATP-dependent translocase ABCB1 (Homo sapiens, UniProt P08183, G191C); test: Increase in ATPase activity of human histidine-tagged Pgp TM3 G191C mutant expressed in HEK293 cells at 2 mM relative to control; settings: hek293, 2000 µM
[13] = target: ATP-dependent translocase ABCB1 (Homo sapiens, UniProt P08183, G203C); test: Increase in ATPase activity of human histidine-tagged Pgp TM3 G203C mutant expressed in HEK293 cells at 2 mM relative to control; settings: hek293, 2000 µM
[14] = target: ATP-dependent translocase ABCB1 (Homo sapiens, UniProt P08183, F200C); test: Increase in ATPase activity of human histidine-tagged Pgp TM3 F200C mutant expressed in HEK293 cells at 2 mM relative to control; settings: hek293, 2000 µM
[15] = target: T2, ATP-dependent translocase ABCB1; test: Increase in ATPase activity of human histidine-tagged Pgp TM3 mutant T199C expressed in HEK293 cells at 2 mM relative to control; settings: hek293, 2000 µM
[16] = target: ATP-dependent translocase ABCB1 (Homo sapiens, UniProt P08183, F193C); test: Increase in ATPase activity of human histidine-tagged Pgp TM3 F193C mutant expressed in HEK293 cells at 2 mM relative to control; settings: hek293, 2000 µM
[17] = target: ATP-dependent translocase ABCB1 (Homo sapiens, UniProt P08183, V206C); test: Increase in ATPase activity of human histidine-tagged Pgp TM3 V206C mutant expressed in HEK293 cells at 2 mM relative to control; settings: hek293, 2000 µM
[18] = target: ATP-dependent translocase ABCB1 (Homo sapiens, UniProt P08183, M192C); test: Increase in ATPase activity of human histidine-tagged Pgp TM3 M192C mutant expressed in HEK293 cells at 2 mM relative to control; settings: hek293, 2000 µM
[19] = target: ATP-dependent translocase ABCB1 (Homo sapiens, UniProt P08183, T202C); test: Increase in ATPase activity of human histidine-tagged Pgp TM3 T202C mutant expressed in HEK293 cells at 2 mM relative to control; settings: hek293, 2000 µM
[20] = target: ATP-dependent translocase ABCB1 (Homo sapiens, UniProt P08183, A198C); test: Increase in ATPase activity of human histidine-tagged Pgp TM3 A198C mutant expressed in HEK293 cells at 2 mM relative to control; settings: hek293, 2000 µM
[21] = target: ATP-dependent translocase ABCB1 (Homo sapiens, UniProt P08183, T209C); test: Increase in ATPase activity of human histidine-tagged Pgp TM3 T209C mutant expressed in HEK293 cells at 2 mM relative to control; settings: hek293, 2000 µM
[22] = target: ATP-dependent translocase ABCB1 (Homo sapiens, UniProt P08183, F201C); test: Increase in ATPase activity of human histidine-tagged Pgp TM3 F201C mutant expressed in HEK293 cells at 2 mM relative to control; settings: hek293, 2000 µM
[23] = target: ATP-dependent translocase ABCB1 (Homo sapiens, UniProt P08183, M197C); test: Increase in ATPase activity of human histidine-tagged Pgp TM3 M197C mutant expressed in HEK293 cells at 2 mM relative to control; settings: hek293, 2000 µM
[24] = target: ATP-dependent translocase ABCB1 (Homo sapiens, UniProt P08183, I205C); test: Increase in ATPase activity of human histidine-tagged Pgp TM3 I205C mutant expressed in HEK293 cells at 2 mM relative to control; settings: hek293, 2000 µM
Chain of ATP-dependent translocase ABCB1 (Homo sapiens, UniProt P08183, I205C) (P08183 whole entry I205C): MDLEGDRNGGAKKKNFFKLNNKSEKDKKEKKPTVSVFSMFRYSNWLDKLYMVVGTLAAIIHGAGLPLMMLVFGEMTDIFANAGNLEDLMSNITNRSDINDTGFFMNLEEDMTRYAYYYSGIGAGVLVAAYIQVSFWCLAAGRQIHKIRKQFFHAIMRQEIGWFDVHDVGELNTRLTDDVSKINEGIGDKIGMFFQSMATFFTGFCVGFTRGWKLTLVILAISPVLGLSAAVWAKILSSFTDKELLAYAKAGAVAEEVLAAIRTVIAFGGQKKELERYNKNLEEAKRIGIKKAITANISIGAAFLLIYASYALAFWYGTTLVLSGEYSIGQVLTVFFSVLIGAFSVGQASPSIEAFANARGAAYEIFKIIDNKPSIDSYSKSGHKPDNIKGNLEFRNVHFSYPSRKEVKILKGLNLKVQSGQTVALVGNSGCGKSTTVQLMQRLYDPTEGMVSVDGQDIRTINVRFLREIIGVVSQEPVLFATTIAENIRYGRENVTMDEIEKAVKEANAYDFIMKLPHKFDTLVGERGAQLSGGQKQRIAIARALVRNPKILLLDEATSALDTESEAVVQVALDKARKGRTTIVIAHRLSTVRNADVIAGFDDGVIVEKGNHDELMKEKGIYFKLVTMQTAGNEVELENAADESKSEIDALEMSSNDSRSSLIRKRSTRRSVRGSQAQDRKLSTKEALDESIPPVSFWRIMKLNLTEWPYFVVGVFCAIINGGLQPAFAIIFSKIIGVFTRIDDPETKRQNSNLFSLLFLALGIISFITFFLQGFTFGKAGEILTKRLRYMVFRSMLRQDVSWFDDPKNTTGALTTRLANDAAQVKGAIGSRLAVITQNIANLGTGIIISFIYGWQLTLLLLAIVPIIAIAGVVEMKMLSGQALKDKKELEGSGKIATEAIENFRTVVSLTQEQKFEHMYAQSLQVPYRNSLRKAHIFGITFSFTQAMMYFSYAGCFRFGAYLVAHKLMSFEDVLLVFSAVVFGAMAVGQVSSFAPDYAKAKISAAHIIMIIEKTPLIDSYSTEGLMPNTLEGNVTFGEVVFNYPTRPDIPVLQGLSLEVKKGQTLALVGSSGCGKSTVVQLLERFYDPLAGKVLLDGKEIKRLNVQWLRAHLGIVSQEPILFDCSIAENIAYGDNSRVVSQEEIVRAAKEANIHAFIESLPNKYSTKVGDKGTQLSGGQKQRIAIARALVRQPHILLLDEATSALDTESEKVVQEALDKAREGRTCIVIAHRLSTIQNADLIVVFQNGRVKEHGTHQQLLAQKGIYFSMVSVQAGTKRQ

HEK293 [25] = test: Inhibition of cross-linking of human Pgp TM1 L65R/TM6 L339C/TM7 F728 mutant expressed in HEK293 cells assessed as drug level causing 50% inhibition of cross linking by immunoblot
HEK293 [26] = test: Inhibition of cross-linking of human Pgp TM6 L339C/TM7 F728C mutant expressed in HEK293 cells assessed as drug level causing 50% inhibition of cross linking by immunoblot
HEK293 [27] = test: Activation of ATPase activity of human Pgp TM7 Cys728 mutant expressed in HEK293 cells at 3 mM relative to control
[28] = target: ATP-dependent translocase ABCB1 (Homo sapiens, UniProt P08183, F728C/L339C/T199R); test: Inhibition of cross-linking of human Pgp TM3 T199R/TM6 L339C/TM7 F728C mutant expressed in HEK293 cells assessed as drug level causing 50% inhibition of cross linking by immunoblot; settings: read-out: Activity
[29] = target: ATP-dependent translocase ABCB1 (Homo sapiens, UniProt P08183, F343R/F728C/L339C); test: Inhibition of cross-linking of human Pgp TM6 F343R/TM6 L339C/TM7 F728C mutant expressed in HEK293 cells assessed as drug level causing 50% inhibition of cross linking by immunoblot; settings: read-out: Activity
[30] = target: ATP-dependent translocase ABCB1 (Homo sapiens, UniProt P08183, F728C/I306R/L339C); test: Inhibition of cross-linking of human Pgp TM5 I306R/TM6 L339C/TM7 F728C mutant expressed in HEK293 cells assessed as drug level causing 50% inhibition of cross linking by immunoblot; settings: read-out: Activity

Question: Which Activity [1] does the source give for `CCN(CC)c1ccc2c(-c3ccc(S(=O)(=O)NCCSS(C)(=O)=O)cc3S(=O)(=O)O)c3ccc(=[N+](CC)CC)cc-3oc2c1.[Cl-]` here?
Answer: The Activity was < 1.5.

Question: And the Activity [2]?
Answer: Its Activity is < 1.5.

Question: What about the Activity [3] of the same compound?
Answer: Its Activity is < 1.5.

Question: What about the Activity [4] of the same compound?
Answer: The Activity was < 1.5.

Question: And the Activity [5]?
Answer: Its Activity is < 1.5.

Question: What about the Activity [6] of the same compound?
Answer: Its Activity is < 1.5.

Question: What about the Activity [7] of the same compound?
Answer: The Activity was 2 mM.

Question: What about the Activity [8] of the same compound?
Answer: The Activity was < 1.5.

Question: What about the Activity [9] of the same compound?
Answer: The Activity was < 1.5.

Question: And the EC50 [10]?
Answer: The EC50 was 880 µM.

Question: And the Activity [11]?
Answer: Its Activity is 6.2.

Question: What about the Activity [12] of the same compound?
Answer: Its Activity is < 1.5.

Question: What about the Activity [13] of the same compound?
Answer: The Activity was < 1.5.

Question: What about the Activity [14] of the same compound?
Answer: Its Activity is < 1.5.

Question: What about the Activity [15] of the same compound?
Answer: Its Activity is < 6.7.

Question: What about the Activity [16] of the same compound?
Answer: The Activity was < 1.5.

Question: And the Activity [17]?
Answer: Its Activity is < 1.5.

Question: And the Activity [18]?
Answer: The Activity was < 1.5.

Question: And the Activity [19]?
Answer: The Activity was < 1.5.

Question: What about the Activity [20] of the same compound?
Answer: The Activity was < 1.5.

Question: And the Activity [21]?
Answer: The Activity was < 1.5.

Question: And the Activity [22]?
Answer: Its Activity is < 1.5.

Question: And the Activity [23]?
Answer: The Activity was < 1.5.

Question: And the Activity [24]?
Answer: The Activity was < 1.5.

Question: For `CC[C@]1(O)C[C@@H]2CN(CCc3c([nH]c4ccccc34)[C@@](C(=O)OC)(c3cc4c(cc3OC)N(C)[C@H]3[C@@](O)(C(=O)OC)[C@H](OC(C)=O)[C@]5(CC)C=CCN6CC[C@]43[C@@H]65)C2)C1`, which Activity (HEK293 [25]) is on record?
Answer: Its Activity is 40 µM.

Question: What about the Activity (HEK293 [26]) of the same compound?
Answer: The Activity was 0.7 µM.

Question: Which Activity (HEK293 [25]) does the source give for `CCN(CC)c1ccc2c(-c3ccccc3C(C)=O)c3ccc(=[N+](CC)CC)cc-3oc2c1` here?
Answer: The Activity was 65 µM.

Question: What about the Activity (HEK293 [26]) of the same compound?
Answer: Its Activity is 88 µM.

Question: `COc1ccc(CC[N+](C)(CCCC(C#N)(c2ccc(OC)c(OC)c2)C(C)C)CCSS(C)(=O)=O)cc1OC` (stereo not drawn) was tested. Which Activity (HEK293 [27]) did it give?
Answer: Its Activity is “inactive”.

Question: With `CCN(CC)c1ccc2c(-c3ccccc3C(=O)O)c3ccc(=[N+](CC)CC)cc-3oc2c1` as the compound, how does the Activity [1] read?
Answer: Its Activity is 6.4.

Question: And the IC50 [28]?
Answer: The IC50 was 77 µM.

Question: And the IC50 [29]?
Answer: Its IC50 is 320 µM.

Question: What about the IC50 [30] of the same compound?
Answer: The IC50 was 96 µM.
